Results from patent publication US20240083892A1 (BISICHEM CO., LTD., priority 2021, published 2024).

Tests used:
[1] = molecular target: T1, RIPK1 (Homo sapiens, UniProt Q13546); assay: Immunoblotting of TNFα induced phospho-RIPK1 (ser 166) levels; format: cell-based; settings: HMC3 cells; Z-VAD-FMK, human TNFα 20 ng/ml, SM-164 100 nM; 7 h, serum free media; read-out: Cell-base RIPK1 activity: phspho-RIPK1 (Ser166)
T1 construct: endogenous in cells; host or cells: HT-29 (KCLB 30038)
T1 sequence (Q13546 1-671): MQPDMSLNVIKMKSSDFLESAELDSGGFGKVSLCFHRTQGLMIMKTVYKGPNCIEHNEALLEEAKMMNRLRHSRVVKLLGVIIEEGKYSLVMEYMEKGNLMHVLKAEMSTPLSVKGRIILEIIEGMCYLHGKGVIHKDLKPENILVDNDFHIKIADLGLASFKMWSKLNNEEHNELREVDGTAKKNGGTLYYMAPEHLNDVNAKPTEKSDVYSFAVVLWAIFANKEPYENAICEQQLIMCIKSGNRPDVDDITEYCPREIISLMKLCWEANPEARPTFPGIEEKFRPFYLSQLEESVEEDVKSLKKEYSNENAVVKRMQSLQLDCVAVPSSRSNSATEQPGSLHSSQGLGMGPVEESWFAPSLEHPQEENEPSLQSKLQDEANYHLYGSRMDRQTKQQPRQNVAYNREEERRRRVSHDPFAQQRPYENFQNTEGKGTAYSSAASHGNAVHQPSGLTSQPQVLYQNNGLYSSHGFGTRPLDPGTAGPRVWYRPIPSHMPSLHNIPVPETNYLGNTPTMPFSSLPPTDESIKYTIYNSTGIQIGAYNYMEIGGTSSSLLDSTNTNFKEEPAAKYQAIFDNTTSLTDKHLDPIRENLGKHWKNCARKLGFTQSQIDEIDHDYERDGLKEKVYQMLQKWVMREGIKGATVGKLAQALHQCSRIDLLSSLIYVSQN
Method in brief: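 HMC3 human microglial cells were pretreated 30 min with Z-VAD-FMK […]. They were then given TNFα 20 ng/ml, SM-164 100 nM and inhibitor (0.1, 1, 10 nM) for 7 h in serum-free medium. BCA-normalised lysates were immunoblotted for phospho-RIPK1 Ser166.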

[2] = molecular target: T1, RIPK1; assay: Cell-based necroptosis assay for RIPK1 activity (cell viability by CCK-8); settings: HT-29 cells; Z-VAD-FMK 20 μM, human TNFα 10 ng/ml, SM-164 100 nM; 24 h; read-out: Cell-base RIPK1 activity: Necroptosis
Method in brief: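 HT-29 cells pretreated 30 min with 20 μM Z-VAD-FMK, then necroptosis induced with human TNFα 10 ng/ml plus SM-164 100 nM alongside RIPK1 inhibitor (0.0001–10 uM) for 24 h. Viability read by CCK-8.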

Structure (SMILES) | IC50 [1] | IC50 [2]
CN(C(=O)c1ccc2c(c1)N(C)C(=O)[C@@H](NC(=O)n1cc(Cc3cccc(F)c3)cn1)CO2)c1ccncc1 [Example 12, (S)-3-(4-(3-fluorobenzyl)-1H-pyrazole-1-carboxamido)-N,5-dimethyl-4-oxo-N-(pyridin-4-yl)-2,3,4,5-tetrahydrobenzo[b][1,4]oxazepine-7-carboxamide] | 0.01 to 0.05 µM | 0.01 to 0.05 µM
Cc1nnc(COc2ccc3c(c2)N(C)C(=O)[C@@H](NC(=O)n2cc(Cc4cccc(F)c4)cn2)CO3)o1 [Example 64, (S)-4-(3-fluorobenzyl)-N-(5-methyl-7-((5-methyl-1,3,4-oxadiazol-2-yl)methoxy)-4-oxo-2,3,4,5-tetrahydrobenzo[b][1,4]oxazepin-3-yl)-1H-pyrazole-1-carboxamide] | 0.01 to 0.05 µM | 0.01 to 0.05 µM
CN1C(=O)[C@@H](NC(=O)n2cc(Cc3cccc(F)c3)cn2)COc2ccc(OCC(=O)n3cc(O[Si](C)(C)C(C)(C)C)cn3)cc21 [Example 54, (S)—N-(7-(2-(4-((tert-butyldimethylsilyl)oxy)-1H-pyrazol-1-yl)-2-oxoethoxy)-5-methyl-4-oxo-2,3,4,5-tetrahydrobenzo[b][1,4]oxazepin-3-yl)-4-(3-fluorobenzyl)-1H-pyrazole-1-carboxamide] | 0.01 to 0.05 µM | 0.01 to 0.05 µM
CN1C(=O)[C@@H](NC(=O)n2cc(Cc3cccc(F)c3)cn2)COc2ccc(OCC(=O)N3CCOCC3)cc21 [Example 39, (S)-4-(3-fluorobenzyl)-N-(5-methyl-7-(2-morpholino-2-oxoethoxy)-4-oxo-2,3,4,5-tetrahydrobenzo[b][1,4]oxazepin-3-yl)-1H-pyrazole-1-carboxamide] | < 0.01 µM | < 0.01 µM
CN1C(=O)[C@@H](NC(=O)n2cc(Cc3cccc(F)c3)cn2)COc2ccc(OCC(=O)N3CCCC3)cc21 [Example 44, (S)-4-(3-fluorobenzyl)-N-(5-methyl-4-oxo-7-(2-oxo-2-(pyrrolidin-1-yl)ethoxy)-2,3,4,5-tetrahydrobenzo[b][1,4]oxazepin-3-yl)-1H-pyrazole-1-carboxamide] | < 0.01 µM | < 0.01 µM
CN1C(=O)[C@@H](NC(=O)n2cc(Cc3cccc(F)c3)cn2)COc2ccc(OCC3CCOCC3)cc21 [Example 55, (S)-4-(3-fluorobenzyl)-N-(5-methyl-4-oxo-7-((tetrahydro-2H-pyran-4-yl)methoxy)-2,3,4,5-tetrahydrobenzo[b][1,4]oxazepin-3-yl)-1H-pyrazole-1-carboxamide] | < 0.01 µM | < 0.01 µM
Cc1noc(C)c1COc1ccc2c(c1)N(C)C(=O)[C@@H](NC(=O)n1cc(Cc3cccc(F)c3)cn1)CO2 [Example 67, (S)—N-(7-((3,5-dimethylisoxazol-4-yl)methoxy)-5-methyl-4-oxo-2,3,4,5-tetrahydrobenzo[b][1,4]oxazepin-3-yl)-4-(3-fluorobenzyl)-1H-pyrazole-1-carboxamide] | < 0.01 µM | < 0.01 µM
CN1C(=O)[C@@H](NC(=O)n2cc(Cc3cccc(F)c3)cn2)COc2ccc(OCc3nc(C(C)(C)O)cs3)cc21 [Example 66, (S)-4-(3-fluorobenzyl)-N-(7-((4-(2-hydroxypropan-2-yl)thiazol-2-yl)methoxy)-5-methyl-4-oxo-2,3,4,5-tetrahydrobenzo[b][1,4]oxazepin-3-yl)-1H-pyrazole-1-carboxamide] | < 0.01 µM | < 0.01 µM

More lines, main results first:

IC50 [1] | Structure (SMILES) | IC50 [2]
< 0.01 µM | CN1C(=O)[C@@H](NC(=O)n2cc(Cc3cccc(F)c3)cn2)COc2ccc(OCC(=O)N3CCC(O)CC3)cc21 [Example 40, (S)-4-(3-fluorobenzyl)-N-(7-(2-(4-hydroxypiperidin-1-yl)-2-oxoethoxy)-5-methyl-4-oxo-2,3,4,5-tetrahydrobenzo[b][1,4]oxazepin-3-yl)-1H-pyrazole-1-carboxamide] | < 0.01 µM
< 0.01 µM | CN1C(=O)[C@@H](NC(=O)n2cc(Cc3cccc(F)c3)cn2)COc2ccc(OCc3cnc(Cl)nc3)cc21 [Example 62, (S)—N-(7-((2-chloropyrimidin-5-yl)methoxy)-5-methyl-4-oxo-2,3,4,5-tetrahydrobenzo[b][1,4]oxazepin-3-yl)-4-(3-fluorobenzyl)-1H-pyrazole-1-carboxamide] | < 0.01 µM
< 0.01 µM | CN1C(=O)[C@@H](NC(=O)n2cc(Cc3cccc(F)c3)cn2)COc2ccc(OCC(=O)N3CC[C@@H](O)C3)cc21 [Example 47, 4-(3-fluorobenzyl)-N—((S)-7-(2-((R)-3-hydroxypyrrolidin-1-yl)-2-oxoethoxy)-5-methyl-4-oxo-2,3,4,5-tetrahydrobenzo[b][1,4]oxazepin-3-yl)-1H-pyrazole-1-carboxamide] | < 0.01 µM
< 0.01 µM | CN1C(=O)[C@@H](NC(=O)n2cc(Cc3cccc(F)c3)cn2)COc2ccc(OCCCC(C)(C)O)cc21 [Example 26, (S)-4-(3-fluorobenzyl)-N-(7-((4-hydroxy-4-methylpentyl)oxy)-5-methyl-4-oxo-2,3,4,5-tetrahydrobenzo[b][1,4]oxazepin-3-yl)-1H-pyrazole-1-carboxamide] | < 0.01 µM
< 0.01 µM | CN1C(=O)[C@@H](NC(=O)n2cc(Cc3cccc(F)c3)cn2)COc2ccc(C(=O)N3CCC(C)(C)CC3)cc21 [Example 2, (S)—N-(7-(4,4-dimethylpiperidine-1-carbonyl)-5-methyl-4-oxo-2,3,4,5-tetrahydrobenzo[b][1,4]oxazepin-3-yl)-4-(3-fluorobenzyl)-1H-pyrazole-1-carboxamide] | < 0.01 µM
< 0.01 µM | CN1C(=O)[C@@H](NC(=O)n2cc(Cc3cccc(F)c3)cn2)COc2ccc(C(=O)N3CCC(O)CC3)cc21 [Example 4, (S)-4-(3-fluorobenzyl)-N-(7-(4-hydroxypiperidine-1-carbonyl)-5-methyl-4-oxo-2,3,4,5-tetrahydrobenzo[b][1,4]oxazepin-3-yl)-1H-pyrazole-1-carboxamide] | 0.01 to 0.05 µM
< 0.01 µM | CN1C(=O)[C@@H](NC(=O)n2cc(Cc3cccc(F)c3)cn2)COc2ccc(C(=O)N3CCC(C(C)(C)O)CC3)cc21 [Example 6, (S)-4-(3-fluorobenzyl)-N-(7-(4-(2-hydroxypropan-2-yl)piperidine-1-carbonyl)-5-methyl-4-oxo-2,3,4,5-tetrahydrobenzo[b][1,4]oxazepin-3-yl)-1H-pyrazole-1-carboxamide] | < 0.01 µM
< 0.01 µM | CN1C(=O)[C@@H](NC(=O)n2cc(Cc3cccc(F)c3)cn2)COc2ccc(OCc3ccnc(F)c3)cc21 [Example 60, (S)-4-(3-fluorobenzyl)-N-(7-((2-fluoropyridin-4-yl)methoxy)-5-methyl-4-oxo-2,3,4,5-tetrahydrobenzo[b][1,4]oxazepin-3-yl)-1H-pyrazole-1-carboxamide] | < 0.01 µM
< 0.01 µM | CN1C(=O)[C@@H](NC(=O)n2cc(Cc3cccc(F)c3)cn2)COc2ccc(OCC(=O)N3CCC(F)(F)C3)cc21 [Example 45, (S)—N-(7-(2-(3,3-difluoropyrrolidin-1-yl)-2-oxoethoxy)-5-methyl-4-oxo-2,3,4,5-tetrahydrobenzo[b][1,4]oxazepin-3-yl)-4-(3-fluorobenzyl)-1H-pyrazole-1-carboxamide] | < 0.01 µM
